Counter-ions that a name gives are not always drawn.
Tests used:
Type in all cases: physicochemical
[1] = Aqueous solubility of indacaterol and indacaterol maleate in water (orbital shaker, UV-Vis); conditions: for pH after dissolution / Solubility: water, initial pH 7.1; for Solubility: shaken 12 hours, UV-Vis
Procedure: Solubility studies of indacaterol and indacaterol maleate were performed using an orbital shaker method. Excess indacaterol was placed in a glass vial with water. The initial pH of the water was 7.1. Samples were shaken for 12 hours to ensure equilibrium was reached. After the 12 hour period, the vial was removed from the shaker and allowed to settle for 30 minutes. Then, the sample was filtered using a 0.2 μM polyvinylidene fluoride (PVDF) syringe filter; the initial 0.5 mL of filtrate was discarded. The pH was then measured and the concentration of the indacaterol was evaluated by UV-Vis.

[2] = Forced degradation study of indacaterol (RP-HPLC impurities); conditions: for Total Impurities* (%): includes 2% process-related impurity
Procedure: A degraded sample panel was prepared to identify indacaterol degradation pathways and products. Stress conditions are outlined in Table 1.
One of 6N HCl, 6N NaOH, or 30% H2O2 (aqueous) were added to a suitable volume of 100 μg/mL indacaterol and diluted with water:methanol (50:50, v:v) to achieve a final indacaterol concentration of 10 μg/mL. Samples were stored at ambient temperature. At specified time points, acidic and basic hydrolysis (1 N HCl and 1 N NaOH, respectively) samples were neutralized (H2O2 samples were not quenched) and reversed-phase high performance liquid chromatography (RP-HPLC) was used to quantitate indacaterol impurities. All samples were diluted to 5 μg/mL prior to RP-HPLC analysis. Method parameters are outlined in Table 2.
Total impurities (process-related and product-related) of the indacaterol forced degradation study samples are presented in Table 3. Forced degradation impurity peaks were identified based on their retention time relative (RRT) to the indacaterol peak. Impurity peaks already present in the indacaterol (control group at T0; total peak area approximately 2%) were considered process-related, while additional peaks formed after the degradation were considered product-related.

[3] = Aqueous solubility of indacaterol with varying pH in citrate buffer (orbital shaker, UV-Vis); conditions: aqueous citrate buffer 5 mM
Procedure: Solubility studies of indacaterol in solutions of varying pH were performed using an orbital shaker method. Excess indacaterol was placed in a glass vial with an aqueous citrate buffer (5 mM; prepared from citric acid and NaOH). Samples were shaken for 12 to 24 hours to ensure equilibrium was reached before checking and adjusting the pH (using 1 M HCl and NaOH) and placing samples back into the orbital shaker for an additional 12 hours. This process was repeated up to two times or until the desired pH was obtained. After the desired pH was reached, the vial was removed from the shaker and allowed to settle for 30 minutes. Then, the sample was filtered using a 0.2 μM PVDF syringe filter; the initial 0.5 mL of filtrate was discarded. The pH was then measured and the concentration of the indacaterol was evaluated by UV-Vis.

[4] = Acidic Hydrolysis (1M HCl), 15 h, ambient temperature
[5] = Basic Hydrolysis (1M NaOH), 15 h, ambient temperature

CCc1cc2c(cc1CC)CC(NC[C@H](O)c1ccc(O)c3[nH]c(=O)ccc13)C2 [Indacaterol maleate, indacaterol maleate]
pH after dissolution [1]: 3.30 | Solubility [1]: 230 µg/mL

CCc1cc2c(cc1CC)CC(NC[C@H](O)c1ccc(O)c3[nH]c(=O)ccc13)C2 [Indacaterol, (R)-5-[2-(5,6-Diethylindan-2-ylamino)-1-hydroxyethyl]-8hydroxy-1H-quinolin-2-one]
Total Peak Area (%) ([2]; Acidic Hydrolysis (1M HCl), 15 h): 99.79% | Indacaterol (%) [2, 4]: 92.54% | Total Impurities* (%) [2, 4]: 7.25% | Indacaterol (%), Change in % peak ([2]; Acidic Hydrolysis (1M HCl), 15 h vs T0): −3.27% | Indacaterol (%) ([2]; Acidic Hydrolysis (1M HCl), T0): 95.81% | Total Peak Area (%) ([2]; Acidic Hydrolysis (1M HCl), T0): 99.82% | Total Impurities* (%) ([2]; Acidic Hydrolysis (1M HCl), T0): 4.01% | Total Peak Area (%) ([2]; Basic Hydrolysis (1M NaOH), 15 h): 99.75% | Indacaterol (%) [2, 5]: 92.06% | Total Impurities* (%) [2, 5]: 7.69% | Indacaterol (%), Change in % peak ([2]; Basic Hydrolysis (1M NaOH), 15 h vs T0): −3.76% | Indacaterol (%) ([2]; Basic Hydrolysis (1M NaOH), T0): 95.82% | Total Peak Area (%) ([2]; Basic Hydrolysis (1M NaOH), T0): 99.81% | Total Impurities* (%) ([2]; Basic Hydrolysis (1M NaOH), T0): 3.99% | Total Peak Area (%) ([2]; Control, T0): 99.85% | Indacaterol (%) ([2]; Control, T0, 10 μg/mL in MeOH:H2O (50:50), ambient temperature): 98.04% | Total Impurities* (%) ([2]; Control, T0): 1.81% | Indacaterol (%) ([2]; Oxidation (1.2% H2O2), 7 h): 97.03% | Total Peak Area (%) ([2]; Oxidation (1.2% H2O2), 7 h): 99.89% | Total Impurities* (%) ([2]; Oxidation (1.2% H2O2), 7 h): 2.77% | Indacaterol (%) ([2]; Oxidation (1.2% H2O2), 29 h): 90.76% | Total Peak Area (%) ([2]; Oxidation (1.2% H2O2), 29 h): 99.59% | Total Impurities* (%) ([2]; Oxidation (1.2% H2O2), 29 h): 8.83% | Total Impurities* (%) ([2]; Oxidation (1.2% H2O2), 29 h, listed as indacaterol): approximately 9% | Indacaterol (%), Change in % peak ([2]; Oxidation (1.2% H2O2), 29 h vs 7 h): −6.27% | degradation of indacaterol samples in aqueous solutions over time (FIG. 1) ([2]; forced degradation experiment, staggered chromatogram): minimal degradation | solubility in water ([1]; water at pH 7.1): insoluble | pH after dissolution [1]: 6.20 | Solubility [1]: < 1 µg/mL | dependence of indacaterol solubility on pH [3]: increase with decreasing pH

From US20250177372A1, “LIQUID FORMULATIONS OF INDACATEROL AND GLYCOPYRRONIUM” (AeroRx Therapeutics, Inc., priority 2022, published 2025)
